Test results taken from US20230271983A1, “FUNCTIONALIZED ISONITRILES AND PRODUCTS, PREPARATION AND USES THEREOF” (UNIVERSIDADE DE SANTIAGO DE COMPOSTELA, priority 2020, published 2023).

Key:
human A3AR = biological target: T1, human A3AR (Homo sapiens, UniProt P0DMS8); assay: A3AR radioligand competition binding, [3H]NECA, HeLa cell membranes; conditions: for Ki: 10 nM [3H]NECA, 25° C. 180 min, read-out: A3 Ki; for inhibition at 1 µM: read-out: A3 specific binding inhibition percentage
T1 construct: expressed in transfected cells; host or cells: HeLa
T1 sequence (P0DMS8 1-318): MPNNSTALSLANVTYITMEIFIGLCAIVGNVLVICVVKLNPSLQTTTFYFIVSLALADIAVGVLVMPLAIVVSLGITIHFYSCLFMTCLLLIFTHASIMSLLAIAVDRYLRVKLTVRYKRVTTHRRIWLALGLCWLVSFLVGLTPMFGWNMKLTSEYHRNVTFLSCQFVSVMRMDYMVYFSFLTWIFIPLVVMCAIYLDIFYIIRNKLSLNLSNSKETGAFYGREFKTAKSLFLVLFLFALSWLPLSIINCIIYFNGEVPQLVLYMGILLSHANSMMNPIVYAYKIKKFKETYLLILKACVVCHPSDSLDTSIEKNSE
From the text: (§1) was evaluate in vitro using radioligand binding assays following a previously described protocol (J. Med. Chem. 2019, 62, 9315-9330). Human ARs were expressed in transfected cell lines [e.g. chinese hamster ovary (CHO) cells (A1AR), human epithelial carcinoma (HeLa) cells (A2AAR and A3AR) and human embryonic kidney (HEK-293) cells (A2BAR)]. [^3H]DPCPX for A1AR and A2BAR, [^3H]NECA for A3AR, and [^3H]ZM241385 for A2AAR were employed as radioligands. […] Using Prism 5.0 software (GraphPad, San Diego, Calif.) K; values were acquired by fitting the data by non-linear regression. Results are the average of three experiments, each of them performed in duplicate. Radioligand binding competition assays were performed in vitro using human ARs expressed in transfected HeLa [hA2AAR (9 pmol/mg protein) and hA3AR (3 pmol/mg protein)], HEK-293 [hA2BAR (1.5 pmol/mg protein)] and CHO [hA1AR (1.5 pmol/mg protein)] cells. A brief description is given below. A1AR competition binding experiments were carried out in membranes from CHO-A, cells labelled with 1 nM [^3H]DPCPX (KD=0.7 nM). Non-specific binding was determined in the presence of 10 μM R-PIA. The reaction mixture was incubated at 25° C. for 60 min. A2AAR competition binding experiments were carried out in membranes from HeLa-A2A cells labelled with 3 nM [^3H]ZM241385 (KD=2 nM). Non-specific binding was determined in the presence of 50 μM NECA. The reaction mixture was incubated at 25° C. for 30 min. […] Non-specific binding was determined in the presence of 400 μM NECA. The reaction mixture was incubated at 25° C. for 30 min. A3AR competition binding experiments were carried out in membranes from HeLa-A3 cells labelled with 10 nM [^3H]NECA (KD=8.7 nM). Non-specific binding was determined in the presence of 100 μM R-PIA. The reaction mixture was incubated at 25° C. for 180 min. After the incubation time, membranes were washed and filtered, radioactivity was detected in a Microbeta Trilux reader (PerkinElmer).
(§2) The adenosinergic (affinity and selectivity) profile of several compounds of the invention was evaluated according to the above examples.

Dopamine D2 receptor = biological target: T2, Dopamine D2 receptor (Homo sapiens, UniProt P14416); assay: Dopamine D2 receptor competition binding, [3H]-Spiperone, CHO-D2 membranes; conditions: 0.15 nM [3H]-Spiperone
T2 construct: expressed in transfected cells; host or cells: CHO-D2 #S20 (membranes prepared in Biofarma laboratory)
T2 sequence (P14416 whole entry, species assumed): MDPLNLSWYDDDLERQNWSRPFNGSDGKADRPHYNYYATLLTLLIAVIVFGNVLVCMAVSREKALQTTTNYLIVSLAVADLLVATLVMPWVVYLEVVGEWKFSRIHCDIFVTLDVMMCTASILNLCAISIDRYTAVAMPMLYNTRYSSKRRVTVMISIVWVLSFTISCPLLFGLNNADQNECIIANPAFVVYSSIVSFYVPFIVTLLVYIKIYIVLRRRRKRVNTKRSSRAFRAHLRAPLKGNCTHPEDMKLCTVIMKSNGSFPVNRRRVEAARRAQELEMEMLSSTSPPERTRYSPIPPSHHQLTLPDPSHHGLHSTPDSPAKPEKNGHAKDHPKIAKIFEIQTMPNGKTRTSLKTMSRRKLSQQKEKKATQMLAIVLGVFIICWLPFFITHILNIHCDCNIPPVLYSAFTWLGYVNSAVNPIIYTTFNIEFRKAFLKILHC
Protocol: (§3) was evaluated in vitro using radioligand binding assays following a previously described protocol (J. Med. Chem., 2020, 63, 613-620, Eur. J. Med. Chem., 2019, 180, 673-689). Dopamine D2 receptor competition binding experiments were carried out in a polypropilene 96-well plate. In each well was incubated 10 μg of membranes from CHO-D2 #S20 cell line prepared in Biofarma laboratory (Lot: A002/22-07-2015, protein concentration=4185 μg/ml), 0.15 nM [3H]-Spiperone (80.2 Ci/mmol, 1 mCi/ml, Perkin Elmer NET1187001MC) and compounds studied and standard. Non-specific binding was determined in the presence of Sulpiride 10 μM (Sigma S112). The reaction mixture (Vt: 250 μl/well) was incubated at 25° C. for 120 min, 200 μL was transferred to GF/C 96-well plate (Millipore, Madrid, Spain) pretreated with 0.5% of PEI and treated with binding buffer (Tris-HCl 50 mM, EDTA 1 mM, MgCl2 5 mM, KCl 5 mM, NaCl 120 mM, pH=7.4), after was filtered and washed four times with 250 μl wash buffer (Tris-HCl 50 mM, NaCl 0.9%, pH=7.4), before measuring in a microplate beta scintillation counter (Microbeta Trilux, PerkinElmer). Dopamine D3 receptor competition binding experiments were carried out in a polypropilene 96-well plate. In each well was incubated 2 μg of membranes from D3 cell line (Perkin Elmer, ES-173M400UA, protein concentration=1000 μg/ml), 1 nM [3H]-Spiperone (68 Ci/mmol, 1 mCi/ml, Perkin Elmer NET1187001MC) and compounds studied and standard. Non-specific binding was determined in the presence of Haloperidol 1 μM (Sigma H1512). The reaction mixture (Vt: 250 μl/well) was incubated at 25° C. for 60 min, 200 μL was transferred to GF/C 96-well plate (Millipore, Madrid, Spain) pretreated with 0.5% of PEI and treated with binding buffer (Tris-HCl 50 mM, MgCl2 5 mM, pH=7.4), after was filtered and washed four times with 250 μl wash buffer (Tris-HCl 50 mM, pH=7.4), before measuring in a microplate beta scintillation counter (Microbeta Trilux, PerkinElmer, Madrid, Spain).

Dopamine D3 receptor = biological target: T3, Dopamine D3 receptor (Homo sapiens, UniProt P35462); assay: Dopamine D3 receptor competition binding, [3H]-Spiperone; conditions: 1 nM [3H]-Spiperone
T3 construct: purchased Perkin Elmer ES-173M400UA
T3 sequence (P35462 whole entry): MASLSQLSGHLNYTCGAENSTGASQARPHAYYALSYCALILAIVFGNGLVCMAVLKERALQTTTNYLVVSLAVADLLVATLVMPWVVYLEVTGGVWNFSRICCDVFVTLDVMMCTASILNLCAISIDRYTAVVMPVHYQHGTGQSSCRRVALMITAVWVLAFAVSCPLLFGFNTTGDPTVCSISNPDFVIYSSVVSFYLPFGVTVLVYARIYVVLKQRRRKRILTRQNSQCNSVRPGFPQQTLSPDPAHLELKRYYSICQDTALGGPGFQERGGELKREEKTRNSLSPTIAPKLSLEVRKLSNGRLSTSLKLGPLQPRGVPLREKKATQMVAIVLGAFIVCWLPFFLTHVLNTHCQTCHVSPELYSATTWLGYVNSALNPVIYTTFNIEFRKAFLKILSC
Protocol: as §3

human A1AR = biological target: T4, human A1AR (Homo sapiens, UniProt P30542); assay: A1AR radioligand competition binding, [3H]DPCPX, CHO cell membranes; conditions: for inhibition at 1 µM: read-out: A1 specific binding inhibition percentage; for Ki: 1 nM [3H]DPCPX, 25° C. 60 min, read-out: A1 Ki
T4 construct: expressed in transfected cells; host or cells: CHO
T4 sequence (P30542 1-326): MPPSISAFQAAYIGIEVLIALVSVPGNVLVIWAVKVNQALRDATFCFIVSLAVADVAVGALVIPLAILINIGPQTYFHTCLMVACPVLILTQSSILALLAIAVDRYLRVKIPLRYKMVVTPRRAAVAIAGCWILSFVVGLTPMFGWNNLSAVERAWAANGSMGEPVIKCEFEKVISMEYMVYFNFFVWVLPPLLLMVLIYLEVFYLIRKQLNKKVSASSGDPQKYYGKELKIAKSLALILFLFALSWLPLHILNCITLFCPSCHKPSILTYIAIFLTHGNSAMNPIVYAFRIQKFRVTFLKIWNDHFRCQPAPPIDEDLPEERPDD
From the text: as §1, §2

human A2AAR = biological target: T5, human A2AAR (Homo sapiens, UniProt P29274); assay: A2AAR radioligand competition binding, [3H]ZM241385, HeLa cell membranes; conditions: for inhibition at 1 µM: read-out: A2A specific binding inhibition percentage; for Ki: 3 nM [3H]ZM241385, 25° C. 30 min, read-out: A2A Ki
T5 construct: expressed in transfected cells; host or cells: HeLa
T5 sequence (P29274 whole entry): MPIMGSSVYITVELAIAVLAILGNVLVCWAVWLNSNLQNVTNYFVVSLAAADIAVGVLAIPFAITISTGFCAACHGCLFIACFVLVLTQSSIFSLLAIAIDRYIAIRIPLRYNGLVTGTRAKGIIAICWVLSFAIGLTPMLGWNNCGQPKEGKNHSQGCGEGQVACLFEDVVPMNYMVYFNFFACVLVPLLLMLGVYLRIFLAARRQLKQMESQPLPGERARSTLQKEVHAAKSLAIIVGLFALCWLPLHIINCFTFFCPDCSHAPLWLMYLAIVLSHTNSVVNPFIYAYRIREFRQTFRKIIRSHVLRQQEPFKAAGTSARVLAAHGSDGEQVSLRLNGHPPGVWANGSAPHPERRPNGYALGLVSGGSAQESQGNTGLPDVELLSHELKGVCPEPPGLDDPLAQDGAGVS
From the text: as §1, §2

human A2BAR = biological target: T6, human A2BAR (Homo sapiens, UniProt P29275); assay: A2BAR radioligand competition binding, [3H]DPCPX, HEK-293 cell membranes; conditions: for inhibition at 1 µM: read-out: A2B specific binding inhibition percentage; for Ki: 25 nM [3H]DPCPX, 25° C. 30 min, read-out: A2B Ki
T6 construct: host or cells: HEK-293
T6 sequence (P29275 1-332): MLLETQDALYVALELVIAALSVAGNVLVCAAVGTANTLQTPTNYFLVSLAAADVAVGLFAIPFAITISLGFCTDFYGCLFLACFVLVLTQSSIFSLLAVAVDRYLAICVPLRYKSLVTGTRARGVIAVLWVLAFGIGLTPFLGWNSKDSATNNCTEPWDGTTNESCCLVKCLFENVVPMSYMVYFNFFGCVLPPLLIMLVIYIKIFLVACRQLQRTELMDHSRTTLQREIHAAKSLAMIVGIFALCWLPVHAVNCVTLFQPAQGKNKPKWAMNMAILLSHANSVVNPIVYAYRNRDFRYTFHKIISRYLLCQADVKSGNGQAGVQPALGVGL
From the text: as §1, §2

D4 = biological target: T7, D4 (Homo sapiens, UniProt P21917); assay: Dopamine D4 radioligand binding
T7 sequence (P21917 1-419): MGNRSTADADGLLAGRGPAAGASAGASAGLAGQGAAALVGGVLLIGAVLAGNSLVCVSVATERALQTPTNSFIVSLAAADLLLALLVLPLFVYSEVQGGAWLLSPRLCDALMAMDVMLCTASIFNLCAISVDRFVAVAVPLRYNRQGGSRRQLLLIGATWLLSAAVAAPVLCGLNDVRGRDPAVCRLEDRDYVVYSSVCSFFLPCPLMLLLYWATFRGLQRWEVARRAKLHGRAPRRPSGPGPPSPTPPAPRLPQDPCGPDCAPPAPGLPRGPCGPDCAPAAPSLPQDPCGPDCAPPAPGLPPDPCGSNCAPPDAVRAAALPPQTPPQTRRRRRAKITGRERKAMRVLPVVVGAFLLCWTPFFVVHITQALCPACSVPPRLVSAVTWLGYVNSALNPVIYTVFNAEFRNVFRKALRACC

Compound	Ki (human A3AR) [nM]	Ki (Dopamine D2 receptor) [nM]	Ki (Dopamine D3 receptor) [nM]	inhibition at 1 µM (human A1AR) [%]	inhibition at 1 µM (human A2AAR) [%]	inhibition at 1 µM (human A2BAR) [%]	Ki (human A2BAR) [nM]	inhibition at 1 µM (human A3AR) [%]	also measured
COc1ccc(-c2cc(NC(=O)CCC(=O)N(C)CC(=O)NCCCOCCOCCOCCCNC(=O)CN(C)C(=O)COc3ccc(-c4ccc5n4[B-](F)(F)[N+]4=C(c6cccs6)C=CC4=C5)cc3)nc(-c3ccc(OC)cc3)n2)cc1	6.13								
CN(CC(=O)NCCCOCCOCCOCCCNC(=O)CN(C)C(=O)COc1ccc(-c2ccc3n2[B-](F)(F)[N+]2=C(c4cccs4)C=CC2=C3)cc1)C(=O)CCC(=O)Nc1ccc(CCN2CN(c3ccccc3)C3(CCN(CCCC(=O)c4ccc(F)cc4)CC3)C2=O)cc1		1.06	148						
COc1ccc(-c2cc(NC(=O)COCC(=O)N(C)CC(=O)NCCOCCOCCOCCOCCNC(=O)CN(C)C(=O)CCCOc3ccc(CN4CCN(c5ccccc5OC)CC4)cc3OC)nc(-c3ccc(OC)cc3)n2)cc1	10	30	2600	8	5	4			
[C-]#[N+]CCCOCCOCCOCCCNC(=O)CN1CCN(C(=O)CNC(=O)COc2ccc(-c3cc4c([nH]3)c(=O)n(CCC)c(=O)n4C)cc2)CC1	195				13		78.6		Ki (human A1AR): 101 nM
[C-]#[N+]CCCOCCOCCOCCCNC(=O)CN(C)C(=O)/C=C/c1ccc2sc(C(=O)NCCCCN3CCN(c4cccc(Cl)c4Cl)CC3)cc2c1		1.1	1						Ki (D4): 500 nM
CCCn1c(=O)c2[nH]c(-c3ccc(OCC(=O)NCC(=O)N4CCN(CC(=O)NCCCOCCOCCOCCCNC(=O)CN(C)C(=O)COc5ccc(C6=[N+]7C(=Cc8ccc(-c9cccs9)n8[B-]7(F)F)C=C6)cc5)CC4)cc3)cc2n(C)c1=O	42.7				23		39.6		Ki (human A1AR): 471 nM
CCCn1c(=O)c2[nH]c(-c3ccc(OCC(=O)NCC(=O)N4CCN(C(C)(C)C(=O)NCCCOCCOCCOCCCNC(=O)CN(C)C(=O)COc5ccc(C6=[N+]7C(=Cc8ccc(-c9cccs9)n8[B-]7(F)F)C=C6)cc5)CC4)cc3)cc2n(C)c1=O				46	1		250	37	
CN(CC(=O)NCCOCCOCCNC(=O)CN(C)C(=O)CC(C)(C)CC(=O)Nc1c(F)cc(C(=O)Nc2nccs2)cc1F)C(=O)CCCCCN1/C(=C/C=C/C=C/C2=[N+](C)c3ccccc3C2(C)C)C(C)(C)c2ccccc21				33		59		54	Ki (human A2AAR): 420 nM
CN(CC(=O)NCCCOCCOCCOCCCNC(=O)CN(C)C(=O)CC(C)(C)CC(=O)Nc1c(F)cc(C(=O)Nc2nccs2)cc1F)C(=O)CCCCCN1/C(=C/C=C/C=C/C2=[N+](C)c3ccccc3C2(C)C)C(C)(C)c2ccccc21				31		18		37	Ki (human A2AAR): 8.35 nM
